Results taken from US20210382058A1, “PATIENT SELECTION FOR TREATMENT OF MYC POSITIVE CANCERS WITH INDENOISOQUINOLINES” (Purdue Research Foundation, priority 2020, published 2021).
Read-outs that look alike come from different tables or passages of the source.

Tests used:
[1] = test system: NCI-60 cancer cell lines; assay: NCI-60 cancer cell line drug screen (GI50, MGM); type: cell-based, human; details: for GI50: read-out: Antiproliferative Activities [GI50 (μM)]
Description: Cancer cells were incubated with the test compounds at five concentrations ranging from 100 μM to 10 nM for 48 h. […] The approximate average of GI50 values across the entire panel of NCI-60 cancer cell lines for each compound was recorded as the MGM value.

[2] = biological target: T1, human topoisomerase I (Homo sapiens, UniProt P11387); details: relative topoisomerase I inhibition levels, previously determined, six levels (0 - 5, +++++ = 5); cited from earlier work
T1 sequence (P11387 1-765): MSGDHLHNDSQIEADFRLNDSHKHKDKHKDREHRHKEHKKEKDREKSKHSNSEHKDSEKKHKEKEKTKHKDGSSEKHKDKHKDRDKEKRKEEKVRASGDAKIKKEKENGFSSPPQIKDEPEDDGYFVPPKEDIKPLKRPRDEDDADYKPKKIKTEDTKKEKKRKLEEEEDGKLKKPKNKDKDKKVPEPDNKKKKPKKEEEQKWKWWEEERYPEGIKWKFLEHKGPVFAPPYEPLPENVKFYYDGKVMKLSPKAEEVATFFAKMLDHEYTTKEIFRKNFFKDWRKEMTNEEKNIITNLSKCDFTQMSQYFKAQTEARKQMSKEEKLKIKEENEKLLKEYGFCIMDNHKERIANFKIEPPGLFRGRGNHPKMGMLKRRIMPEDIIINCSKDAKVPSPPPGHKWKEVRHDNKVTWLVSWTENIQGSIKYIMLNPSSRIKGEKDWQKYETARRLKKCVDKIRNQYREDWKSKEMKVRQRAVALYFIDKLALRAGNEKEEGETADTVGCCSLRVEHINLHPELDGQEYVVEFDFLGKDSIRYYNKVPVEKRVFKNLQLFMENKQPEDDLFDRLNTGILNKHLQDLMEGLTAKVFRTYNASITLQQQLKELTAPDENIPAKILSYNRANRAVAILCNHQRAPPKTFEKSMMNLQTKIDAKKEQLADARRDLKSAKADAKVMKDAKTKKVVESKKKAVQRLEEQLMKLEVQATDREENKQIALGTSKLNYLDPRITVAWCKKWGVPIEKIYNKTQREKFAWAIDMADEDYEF

[3] = test system: MYC protein expression in MCF-7 breast cancer cells; assay: Western blotting of MYC protein level in MCF-7 cells; type: cell-based, human
Procedure, shortened: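 MCF-7 cells were exposed to compounds at 0.5, 1, 2 and 4 μM for 24 hours at 37° C. MYC was detected by immunoblot with ECL, using rabbit anti-MYC (1:1000) and anti-GAPDH (1:2000) as loading control.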

Q: Which GI50 ([1]; Homo sapiens, 786-0, Renal Cancer, 786-0) does the source give for COc1cnc2c(c1)C(=O)c1c-2n(CCCNC(C)C)c(=O)c2cc(F)ccc12 [Compound 5] here?
A: The GI50 was 0.12 µM.

Q: And the GI50 ([1]; Homo sapiens, A498, Renal Cancer, A498)?
A: Its GI50 is 0.2 µM.

Q: And the GI50 ([1]; Homo sapiens, A549, Non-Small Cell Lung Cancer, A549/ATCC)?
A: The GI50 was 0.07 µM.

Q: What about the GI50 ([1]; Homo sapiens, ACHN, Renal Cancer, ACHN) of the same compound?
A: The GI50 was 0.06 µM.

Q: And the GI50 ([1]; Homo sapiens, BT-549, Breast Cancer, BT-549)?
A: Its GI50 is 0.66 µM.

Q: And the GI50 ([1]; Homo sapiens, CCRF-CEM, Leukemia, CCRF-CEM)?
A: The GI50 was 0.11 µM.

Q: What about the GI50 ([1]; Homo sapiens, COLO 205, Colon Cancer, COLO 205) of the same compound?
A: The GI50 was 0.09 µM.

Q: And the GI50 ([1]; Homo sapiens, DU-145, Prostate Cancer, DU-145)?
A: Its GI50 is 0.21 µM.

Q: And the GI50 ([1]; Homo sapiens, EKVX, Non-Small Cell Lung Cancer, EKVX)?
A: Its GI50 is 0.3 µM.

Q: What about the GI50 ([1]; Homo sapiens, HCC 2998, Colon Cancer, HCC-2998) of the same compound?
A: The GI50 was 0.4 µM.

Q: And the GI50 ([1]; Homo sapiens, HCT-15, Colon Cancer, HCT-15)?
A: The GI50 was 0.16 µM.

Q: And the GI50 ([1]; Homo sapiens, HCT-116, Colon Cancer, HCT-116)?
A: Its GI50 is 0.09 µM.

Q: What about the GI50 ([1]; Homo sapiens, HL-60, Leukemia, HL-60(TB)) of the same compound?
A: Its GI50 is 0.16 µM.

Q: And the GI50 ([1]; Homo sapiens, HOP-62, Non-Small Cell Lung Cancer, HOP-62)?
A: The GI50 was 0.11 µM.

Q: What about the GI50 ([1]; Homo sapiens, HOP-92, Non-Small Cell Lung Cancer, HOP-92) of the same compound?
A: The GI50 was 0.28 µM.

Q: And the GI50 ([1]; Homo sapiens, HT-29, Colon Cancer, HT29)?
A: Its GI50 is 0.07 µM.

Q: What about the GI50 ([1]; Homo sapiens, Hs-578T, Breast Cancer, HS 578T) of the same compound?
A: Its GI50 is 0.75 µM.

Q: What about the GI50 ([1]; Homo sapiens, IGROV-1, Ovarian Cancer, IGROV1) of the same compound?
A: Its GI50 is 0.21 µM.

Q: And the GI50 ([1]; Homo sapiens, K562, Leukemia, K-562)?
A: Its GI50 is 0.13 µM.

Q: What about the GI50 ([1]; Homo sapiens, KM12, Colon Cancer, KM12) of the same compound?
A: Its GI50 is 0.17 µM.

Q: And the GI50 ([1]; Homo sapiens, LOX IMVI, Melanoma, LOX IMVI)?
A: The GI50 was 0.11 µM.

Q: What about the GI50 ([1]; Homo sapiens, Leukemia, SR) of the same compound?
A: Its GI50 is 0.08 µM.

Q: What about the GI50 ([1]; Homo sapiens, MCF7, Breast Cancer, MCF7) of the same compound?
A: Its GI50 is 0.03 µM.

Q: And the GI50 ([1]; Homo sapiens, MDA-MB-231, Breast Cancer, MDA-MB-231/ATCC)?
A: Its GI50 is 0.4 µM.

Q: What about the GI50 ([1]; Homo sapiens, MDA-MB-435, Melanoma, MDA-MB-435) of the same compound?
A: The GI50 was 0.31 µM.

Q: And the GI50 ([1]; Homo sapiens, MDA-MB-468, Breast Cancer, MDA-MB-468)?
A: The GI50 was 0.23 µM.

Q: What about the GI50 ([1]; Homo sapiens, MOLT-4, Leukemia, MOLT-4) of the same compound?
A: Its GI50 is 0.04 µM.

Q: And the GI50 ([1]; Homo sapiens, Malme-3M, Melanoma, MALME-3M)?
A: The GI50 was 0.2 µM.

Q: What about the GI50 ([1]; Homo sapiens, Melanoma, M14) of the same compound?
A: Its GI50 is 0.23 µM.

Q: What about the GI50 ([1]; Homo sapiens, NCI-H23, Non-Small Cell Lung Cancer, NCI-H23) of the same compound?
A: Its GI50 is 0.18 µM.

Q: What about the GI50 ([1]; Homo sapiens, NCI-H226, Non-Small Cell Lung Cancer, NCI-H226) of the same compound?
A: Its GI50 is 0.15 µM.

Q: And the GI50 ([1]; Homo sapiens, NCI-H322M, Non-Small Cell Lung Cancer, NCI-H322M)?
A: Its GI50 is 0.32 µM.

Q: And the GI50 ([1]; Homo sapiens, NCI-H460, Non-Small Cell Lung Cancer, NCI-H460)?
A: The GI50 was 0.04 µM.

Q: And the GI50 ([1]; Homo sapiens, NCI-H522, Non-Small Cell Lung Cancer, NCI-H522)?
A: The GI50 was 0.04 µM.

Q: What about the GI50 ([1]; Homo sapiens, OVCAR-3, Ovarian Cancer, OVCAR-3) of the same compound?
A: Its GI50 is 0.19 µM.

Q: And the GI50 ([1]; Homo sapiens, OVCAR-4, Ovarian Cancer, OVCAR-4)?
A: Its GI50 is 0.3 µM.

Q: What about the GI50 ([1]; Homo sapiens, OVCAR-5, Ovarian Cancer, OVCAR-5) of the same compound?
A: The GI50 was 0.28 µM.

Q: And the GI50 ([1]; Homo sapiens, OVCAR-8, Ovarian Cancer, OVCAR-8)?
A: Its GI50 is 0.14 µM.

Q: What about the GI50 ([1]; Homo sapiens, Ovarian Cancer, NCl/ADR-RES) of the same compound?
A: The GI50 was 0.23 µM.

Q: What about the GI50 ([1]; Homo sapiens, Prostate Cancer, PC-3) of the same compound?
A: Its GI50 is 0.28 µM.

Q: And the GI50 ([1]; Homo sapiens, RPMI-8226, Leukemia, RPMI-8226)?
A: The GI50 was 0.15 µM.

Q: What about the GI50 ([1]; Homo sapiens, RXF 393, Renal Cancer, RXF 393) of the same compound?
A: Its GI50 is 0.23 µM.

Q: And the GI50 ([1]; Homo sapiens, Renal Cancer, U0-31)?
A: The GI50 was 0.08 µM.

Q: And the GI50 ([1]; Homo sapiens, SF-268, CNS Cancer, SF-268)?
A: Its GI50 is 0.21 µM.

Q: What about the GI50 ([1]; Homo sapiens, SF-295, CNS Cancer, SF-295) of the same compound?
A: The GI50 was 0.09 µM.

Q: And the GI50 ([1]; Homo sapiens, SF-539, CNS Cancer, SF-539)?
A: Its GI50 is 0.25 µM.

Q: What about the GI50 ([1]; Homo sapiens, SK-MEL-2, Melanoma, SK-MEL-2) of the same compound?
A: Its GI50 is 0.51 µM.

Q: And the GI50 ([1]; Homo sapiens, SK-MEL-5, Melanoma, SK-MEL-5)?
A: The GI50 was 0.16 µM.

Q: And the GI50 ([1]; Homo sapiens, SK-MEL-28, Melanoma, SK-MEL-28)?
A: The GI50 was 0.94 µM.

Q: And the GI50 ([1]; Homo sapiens, SK-OV-3, Ovarian Cancer, SK-OV-3)?
A: The GI50 was 0.22 µM.

Q: What about the GI50 ([1]; Homo sapiens, SN12C, Renal Cancer, SN12C) of the same compound?
A: The GI50 was 0.16 µM.

Q: And the GI50 ([1]; Homo sapiens, SNB-19, CNS Cancer, SNB-19)?
A: The GI50 was 0.18 µM.

Q: And the GI50 ([1]; Homo sapiens, SNB-75, CNS Cancer, SNB-75)?
A: Its GI50 is 0.22 µM.

Q: And the GI50 ([1]; Homo sapiens, SW-620, Colon Cancer, SW-620)?
A: The GI50 was 0.12 µM.

Q: And the GI50 ([1]; Homo sapiens, T47D, Breast Cancer, T-47D)?
A: The GI50 was 0.08 µM.

Q: What about the GI50 ([1]; Homo sapiens, TK-10, Renal Cancer, TK-10) of the same compound?
A: The GI50 was 0.18 µM.

Q: What about the GI50 ([1]; Homo sapiens, U-251, CNS Cancer, U251) of the same compound?
A: Its GI50 is 0.08 µM.

Q: And the GI50 ([1]; Homo sapiens, UACC-62, Melanoma, UACC-62)?
A: Its GI50 is 0.27 µM.

Q: What about the GI50 ([1]; Homo sapiens, UACC-257, Melanoma, UACC-257) of the same compound?
A: The GI50 was 0.47 µM.

Q: And the mean GI50 across NCI-60 panel (MGM) ([1]; Homo sapiens, average of GI50 values across the entire panel of NCI-60 cancer cell lines)?
A: Its mean GI50 across NCI-60 panel (MGM) is 165 nM.

Q: What about the “anticancer activity (GI50 profile) in words” value ([1]; NCI-60 panel) of the same compound?
A: Its value is “more potent anticancer activities compared to compounds 4 and 20”.

Q: What about the “Top1 Inhibiton” value [2] of the same compound?
A: Its value is “++ (medium inhibition, ++, MYC expression inhibited at 2.0 μM, or no clear dose-dependent MYC inhibition)”.

Q: And the minimal effective concentration ([3]; Homo sapiens, MCF7, western blotting, MCF-7 cells, 0.5, 1, 2, and 4 μM, 24 hours, read-out: MYC Inhibition)?
A: Its minimal effective concentration is 0.5 to 1 µM.

Q: What about the “MYC-inhibitory effect (MYC protein, western blot)” value ([3]; MCF-7, 0.5, 1, 2, and 4 μM, 24 h) of the same compound?
A: The value was “clear MYC-inhibitory effect”.
